# Results reported in US20110217309A1, “BIOLOGICAL MARKERS PREDICTIVE OF ANTI-CANCER RESPONSE TO INSULIN-LIKE GROWTH FACTOR-1 RECEPTOR KINASE INHIBITORS” (priority 2010, published 2011).
# Tests used:
# [1] = tested on: MDAH-2774 cells; experiment: Cell Titer Glo proliferation assay; type: cell-based, human; settings: MDAH-2774, 72 hours, KRAS mutant
# Description: (§1) Cell Lines and Culture. Human cancer cell lines, were obtained from American Type Culture Collection (ATCC, Manassas, Va.), or the following additional indicated sources, and cultured in media as described. […] Cells were maintained at 37° C. in an incubator under an atmosphere containing 5% CO2. The cells were routinely screened for the presence of mycoplasma (MycoAlert, Cambrex Bio Science, Baltimore, Md.). For growth inhibition assays, cells were plated and allowed to proliferate for 24 hours. […] Cell viability was assayed using the Cell Titer-Glo reagent (Promega Corp., Madison, Wis.).
# (§2) Proliferation Assay. […] The basis of the assay is a luminescent quantitation of ATP present in a cell culture plate well. In essence, the greater the number of viable cells in the well, the greater the level of ATP present. The assay utilizes a substrate that binds ATP to produce a luminescent signal, which can be read on a luminometer. Unless otherwise noted, the manufacturer's instructions were followed exactly. Briefly, on Day 1, cells were plated in 120 μl of 10% serum-containing growth media at a density of 4000 cells/well in a white polystyrene 96 well assay plate. […] After 72 h incubation with the inhibitor, the cells were assayed. Results were calculated as a fraction of the DMSO controlled cells.
# [2] = tested on: OVCAR5 cells; experiment: Cell Titer Glo proliferation assay; type: cell-based, human; settings: OVCAR5, 72 hours, KRAS mutant
# Description: as §1, §2
# [3] = tested on: FaDu tumors; experiment: Tumor xenograft study; settings: treatment in vivo for 10-14 days
smiles,measurement,setting,value
"C[C@]1(O)C[C@@H](c2nc(-c3ccc4ccc(-c5ccccc5)nc4c3)c3c(N)nccn32)C1 [OSI-906, cis-3-[8-amino-1-(2-phenyl-quinolin-7-yl)-imidazo[1,5-a]pyrazin-3-yl]-1-methyl-cyclobutanol]","EC50, proliferation",[1],sub-micromolar
same,"EC50, proliferation",[2],sub-micromolar
same,% TGI (tumor growth inhibition),[3],< 30%
